Source: the NIST ThermoML archive (doi:10.1016/j.jct.2013.12.025)

Experiment: refractive index (Na D-line) (dimensionless); xn = mol fraction of the nth substance listed
Conditions: 101 kPa, Liquid, Standard Abbe refractometry

C=C[Si](C)(C)O[Si](C)(C)C=C [1,3-diethenyl-1,1,3,3-tetramethyldisiloxane] + CCc1ccccc1
refractive index
Conditions	283.15 K	288.15 K	293.15 K	298.15 K	303.15 K
x1 = 0.0501	1.49399	1.49133	1.48864	1.48591	1.48318
x1 = 0.1001	1.48737	1.48473	1.48204	1.47931	1.4766
x1 = 0.1499	1.48124	1.47856	1.47587	1.47319	1.47044
x1 = 0.2001	1.47548	1.47282	1.47013	1.46745	1.46472
x1 = 0.25	1.47011	1.46746	1.46476	1.46206	1.45934
x1 = 0.3	1.46506	1.46243	1.45974	1.45705	1.45432
x1 = 0.3499	1.46032	1.45769	1.45502	1.45233	1.4496
x1 = 0.4	1.45589	1.45324	1.45057	1.44786	1.44516
x1 = 0.4501	1.45171	1.44905	1.44639	1.44368	1.44097
x1 = 0.5	1.44774	1.44509	1.44243	1.43975	1.43705
x1 = 0.5503	1.44396	1.44135	1.43866	1.43599	1.43331
x1 = 0.6	1.44044	1.43779	1.43514	1.43246	1.42979
x1 = 0.6501	1.43706	1.43444	1.43177	1.42909	1.42643
x1 = 0.6999	1.43392	1.43128	1.4286	1.42594	1.42325
x1 = 0.7502	1.43084	1.4282	1.42555	1.42288	1.42022
x1 = 0.8001	1.42794	1.42531	1.42264	1.41999	1.41732
x1 = 0.85	1.42518	1.42258	1.41991	1.41723	1.41458
x1 = 0.8999	1.42257	1.41995	1.41729	1.41464	1.41198
x1 = 0.9498	1.42013	1.41752	1.41486	1.41219	1.40954
x1 = 1	1.41762	1.41498	1.41232	1.40969	1.40704

C=C[Si](C)(C)O[Si](C)(C)C=C [1,3-diethenyl-1,1,3,3-tetramethyldisiloxane] + COc1ccccc1
refractive index
Conditions	283.15 K	288.15 K	293.15 K	298.15 K	303.15 K
x1 = 0.0501	1.51284	1.51027	1.50766	1.50499	1.50234
x1 = 0.1	1.50406	1.5015	1.49885	1.49617	1.49356
x1 = 0.15	1.49596	1.49337	1.49073	1.48807	1.48543
x1 = 0.2004	1.48841	1.48578	1.48317	1.48051	1.47786
x1 = 0.2499	1.48153	1.47893	1.47631	1.47362	1.47098
x1 = 0.3	1.47505	1.47247	1.46982	1.46716	1.4645
x1 = 0.35	1.46908	1.46651	1.46384	1.46116	1.45851
x1 = 0.3997	1.46353	1.46092	1.45829	1.4556	1.45295
x1 = 0.4499	1.45831	1.45568	1.45303	1.45034	1.4477
x1 = 0.5001	1.45338	1.45077	1.44813	1.44544	1.44279
x1 = 0.5499	1.44883	1.4462	1.44358	1.44089	1.43823
x1 = 0.6	1.4445	1.44188	1.43925	1.43657	1.43393
x1 = 0.6499	1.44046	1.43782	1.43521	1.43252	1.42986
x1 = 0.6999	1.43664	1.43403	1.43139	1.4287	1.42604
x1 = 0.7499	1.43304	1.43043	1.42778	1.4251	1.42244
x1 = 0.8	1.42961	1.42699	1.42434	1.42166	1.41901
x1 = 0.8499	1.42639	1.42377	1.42112	1.41846	1.4158
x1 = 0.8998	1.42333	1.4207	1.41806	1.4154	1.41277
x1 = 0.9499	1.42042	1.41779	1.41515	1.41251	1.40987
x1 = 1	1.41766	1.415	1.41236	1.4097	1.40707
